Data as given in article PMC5841296, “Inhibition of the Hexosamine Biosynthetic Pathway by targeting PGM3 causes breast cancer growth arrest and apoptosis” (Cell Death & Disease, 2018).

Key:
[1] = biological target: T1, PGM3 (N-Acetylglucosamine-phosphate Mutase) (Homo sapiens, UniProt O95394); assay: ITDRF-CETSA, Western blot (cell extract); format: biochemical; design: endogenous full-length protein in MDA-MB-231 soluble extract (freeze-thaw), detected by Western blot; settings: 30 min RT incubation of extract, heated 3 min at 58 °C; natural substrate
T1 sequence (O95394 1-542): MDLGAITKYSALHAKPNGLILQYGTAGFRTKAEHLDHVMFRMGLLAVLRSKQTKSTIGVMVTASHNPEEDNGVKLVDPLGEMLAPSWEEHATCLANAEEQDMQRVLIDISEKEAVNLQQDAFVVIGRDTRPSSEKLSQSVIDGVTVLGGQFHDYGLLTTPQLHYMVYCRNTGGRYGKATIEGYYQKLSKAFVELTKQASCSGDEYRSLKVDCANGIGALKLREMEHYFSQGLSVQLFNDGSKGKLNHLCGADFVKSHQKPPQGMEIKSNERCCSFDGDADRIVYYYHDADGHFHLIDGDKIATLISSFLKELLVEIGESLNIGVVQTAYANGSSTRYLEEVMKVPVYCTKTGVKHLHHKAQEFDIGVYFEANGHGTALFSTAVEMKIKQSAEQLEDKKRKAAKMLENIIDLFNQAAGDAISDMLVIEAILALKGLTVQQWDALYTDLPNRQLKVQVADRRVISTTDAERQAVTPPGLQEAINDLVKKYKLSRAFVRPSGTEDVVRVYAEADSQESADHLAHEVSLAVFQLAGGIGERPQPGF

[2] = biological target: T1, PGM3 (N-Acetylglucosamine-phosphate Mutase); assay: CETSA, Western blot (cell extract); settings: 30 min RT incubation of extract, heated 3 min at 49-70 °C or isothermal at 58 °C; prodrug tested, possible conversion to FR051 in lysate not excluded

| SMILES | ITDRF CETSA [1] | CETSA [2] |
| --- | --- | --- |
| CC(=O)N[C@H]1C(O)O[C@H](COP(=O)(O)O)[C@@H](O)[C@@H]1O (some centres unmarked) [GlcNAc-6-P] | more potent binding than the natural substrate GlcNAc-6-P |  |
| CC(=O)OC[C@H]1O[C@@H]2OC(C)=N[C@@H]2[C@@H](OC(C)=O)[C@@H]1OC(C)=O [FR054, 2-methyl-(3,4,6-tri-O-acetyl-1,2-dideoxy-α-D-glucopyrano)-[2,1-d]-2-oxazoline] |  | FR054 markedly increased the accumulation of PGM3 in the soluble fraction |
